Patent publication US9399649B2, “Compounds for treating spinal muscular atrophy” (PTC Therapeutics Inc., priority 2012, dated 2016)

Key:
[1] = test system: Smn protein; test: Smn protein assay in cultured cells (SMN HTRF); type: cell-based, human; details: for Smn protein expression: SMA Type 1 patient fibroblast cells, 48 hour, SMN HTRF assay, FIG. 8; for EC1.5x for Smn protein expression / maximum fold (Fold) increase of Smn protein: SMA patient fibroblast cells (GM03813), 48 hours; for EC1.5x for Smn protein expression: 7-point concentration curve, concentration producing 1.5 times Smn protein vs DMSO vehicle; for maximum fold (Fold) increase of Smn protein: 7-point concentration data, relative to vehicle control
In short: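 SMA patient fibroblasts, 5,000 per well in DMEM-10% FBS, exposed 48 h at 37° C. to a 7-point, 3.16-fold compound series in triplicate. RIPA lysates read by SMN HTRF (665/620 nm, overnight at room temperature); ΔF over blank expressed as fold of vehicle.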

[2] = test system: full length and Δ7 SMN2 mRNA; test: SMN2 mRNA RT-qPCR splicing assay in animal tissues; type: in vivo; details: C/C-allele SMA mice, brain and muscle, 10 mg/kg oral BID for 10 days, FIG. 6
Protocol: The reverse transcription-quantitative PCR-based (RT-qPCR) assay is used to quantify the levels of the full length and Δ7 SMN2 mRNA in tissues from mice treated with test compound.
C/C-allele SMA mice are treated by oral gavage two times per day (BID) for 10 days with test compounds re-suspended in 0.5% HPMC and 0.1% Tween-80. Tissue samples were collected and snap frozen for RNA purification.
Tissue samples (20-40 mg) are homogenized in QIAzol Lysis Reagent for 2 minutes at 20 Hz in the TissueLyser II using one stainless steel bead. After addition of chloroform, the homogenate is separated into aqueous and organic phases by centrifugation. RNA partitioned to the upper, aqueous phase is extracted and ethanol is added to provide appropriate binding conditions. The sample is then applied to the RNeasy spin column from the RNeasy Mini Kit, where total RNA binds to the membrane. The RNA is eluted in RNase-free water then stored at −20° C. and subsequently analyzed using the TaqMan RT-qPCR on the 7900HT Thermocycler. Total RNA is diluted ten fold and 2.5 μL, of the diluted sample is added to the TaqMan RT-qPCR mixture.
SMN2 spliced products are identified using the following primers and probes in Table 7. Primer SMN FL Forward B (SEQ ID NO. 7) hybridizes to a nucleotide sequence in exons 7 and 8, primer SMN Δ7 Forward B (SEQ ID NO. 8) hybridizes to a nucleotide sequence in exons 6 and 8, primer SMN Reverse B (SEQ ID NO. 9) hybridizes to a nucleotide sequence in exon 8, probe SMN Probe B (SEQ ID NO. 10) hybridizes to a nucleotide sequence in exon 8. These primers and probe hybridize to nucleotide sequences common to human SMN1 and SMN2 mRNA. Since the SMA patient cells used in Example 5 contain only the SMN2 gene, RT-qPCR can quantify only SMN2 full-length and Δ7 mRNA.
The SMN forward and reverse primers are used at final concentrations of 0.4 μM. The SMN probe is used at a final concentration of 0.15 μM. The SMN-GAPDH Mix (10 μL, total volume) is prepared by combining 5 μL of 2×RT-PCR buffer, 0.4 μL of 25×RT-PCR enzyme mix, 0.5 μL of 20×GAPDH primer-probe mix, 1.505 μL of water, 2.5 μL of RNA solution, 0.04 μL of 100 μM forward primer, 0.04 μL of 100 μM reverse primer, and 0.015 μL of 100 μM SMN probe. […]
The increase of SMN2 FL and decrease in SMN2 Δ7 mRNA relative to those in tissues from animals treated with vehicle control are determined from real-time PCR data using a modified ΔΔCt method (as described in Livak and Schmittgen, Methods, 2001, 25:402-8). The amplification efficiency (E) is calculated from the slope of the amplification curve for SMN2 FL, SMN2 Δ7, and GAPDH individually. The abundances of SMN2 FL, SMN2 Δ7, and GAPDH are then calculated as (1+E)^−Ct, where Ct is the threshold value for each amplicon. […]

[3] = Body weight of neonatal Δ7 SMA mice; type: in vivo; details: neonatal SMA Δ7 homozygous knockout mice, IP QD PND 3 to PND 23, then orally BID from PND 24 until study end, FIG. 13
Protocol: The change in body weight of neonatal SMA mice is used to determine whether treatment with a test compound improves body weight.
SMA Δ7 homozygous knockout mice are dosed intraperitoneally (IP) with test compound or vehicle (100% DMSO) QD from PND 3 until the dose regimen is switched to an oral dose BID in 0.5% hydroxypropylmethyl cellulose (HPMC) with 0.1% Tween-80 at a dose 3.16-fold higher than the dose used for IP. Body weights of SMA Δ7 mice treated with test compound or vehicle and age matched heterozygous mice are recorded every day.

Cc1cn2cc(-c3cc4ccc(N5CCN(C)CC5)cc4c(=O)o3)nc2c(C)n1 [Cpd 65, 3-(6,8-dimethylimidazo[1,2-a]pyrazin-2-yl)-7-(4-methylpiperazin-1-yl)-1H-isochromen-1-one]
Smn protein expression [1]: dose dependent increase in Smn protein expression
EC1.5x for Smn protein expression [1]: **** (an EC1.5×≦0.3 nM is indicated by four stars (****))
maximum fold (Fold) increase of Smn protein [1]: ***** (a fold increase >1.65 is indicated by five stars (*****))
SMN2 FL mRNA in tissues [2]: substantially more SMN2 FL mRNA
SMN2 Δ7 mRNA in tissues [2]: less SMN2 Δ7 mRNA
body weight [3]: improved compared to vehicle treated mice

Cc1cn2cc(-c3cc4ccc(N5CCN6CCC[C@H]6C5)cc4c(=O)o3)nc2c(C)n1 [Cpd 69, 3-(6,8-dimethylimidazo[1,2-a]pyrazin-2-yl)-7-[(8aS)-hexahydropyrrolo[1,2-a]pyrazin-2(1H)-yl]-1H-isochromen-1-one]
Smn protein expression [1]: dose dependent increase in Smn protein expression
EC1.5x for Smn protein expression [1]: **** (an EC1.5×≦0.3 nM is indicated by four stars (****))
maximum fold (Fold) increase of Smn protein [1]: ***** (a fold increase >1.65 is indicated by five stars (*****))
SMN2 FL mRNA in tissues [2]: substantially more SMN2 FL mRNA
SMN2 Δ7 mRNA in tissues [2]: less SMN2 Δ7 mRNA
body weight [3]: improved compared to vehicle treated mice
